Source: patent US12569563B2, “Selective HDAC6 degraders and methods of use thereof” (DANA-FARBER CANCER INSTITUTE, INC., priority 2019, dated 2026)

Molecular target: T1, HDAC6 (Homo sapiens, UniProt Q9UBN7)
T1 sequence (Q9UBN7 1-1215): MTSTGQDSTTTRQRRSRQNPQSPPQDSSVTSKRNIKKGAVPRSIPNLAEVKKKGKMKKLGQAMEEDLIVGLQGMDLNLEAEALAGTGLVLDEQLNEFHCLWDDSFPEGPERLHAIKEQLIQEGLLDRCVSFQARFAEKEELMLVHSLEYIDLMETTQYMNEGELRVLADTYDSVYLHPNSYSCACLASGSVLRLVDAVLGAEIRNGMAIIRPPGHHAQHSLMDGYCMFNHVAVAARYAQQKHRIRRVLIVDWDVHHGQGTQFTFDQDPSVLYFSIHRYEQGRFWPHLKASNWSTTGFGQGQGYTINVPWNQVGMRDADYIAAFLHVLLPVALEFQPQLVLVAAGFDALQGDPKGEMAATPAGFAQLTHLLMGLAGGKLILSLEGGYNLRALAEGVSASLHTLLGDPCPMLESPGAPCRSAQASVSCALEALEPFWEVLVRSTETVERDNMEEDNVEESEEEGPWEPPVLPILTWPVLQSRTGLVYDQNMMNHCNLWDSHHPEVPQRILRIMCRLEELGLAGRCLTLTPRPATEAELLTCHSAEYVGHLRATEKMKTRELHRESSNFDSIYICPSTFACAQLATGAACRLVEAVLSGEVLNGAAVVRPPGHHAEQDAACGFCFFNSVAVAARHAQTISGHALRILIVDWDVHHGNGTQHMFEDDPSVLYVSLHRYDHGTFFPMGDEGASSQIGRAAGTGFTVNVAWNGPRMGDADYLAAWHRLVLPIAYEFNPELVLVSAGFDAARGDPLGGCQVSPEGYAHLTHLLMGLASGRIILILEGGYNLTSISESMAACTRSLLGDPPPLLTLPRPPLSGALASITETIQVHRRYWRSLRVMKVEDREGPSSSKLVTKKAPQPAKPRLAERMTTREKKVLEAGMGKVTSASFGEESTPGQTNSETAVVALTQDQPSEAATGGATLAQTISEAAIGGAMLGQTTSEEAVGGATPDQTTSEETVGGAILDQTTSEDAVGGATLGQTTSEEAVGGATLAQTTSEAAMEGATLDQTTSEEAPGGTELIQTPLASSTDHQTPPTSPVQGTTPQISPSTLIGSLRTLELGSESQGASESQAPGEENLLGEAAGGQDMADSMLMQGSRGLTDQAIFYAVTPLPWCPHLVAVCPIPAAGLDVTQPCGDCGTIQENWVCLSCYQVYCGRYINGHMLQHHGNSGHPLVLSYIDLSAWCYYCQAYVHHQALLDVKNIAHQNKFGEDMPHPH
Assay: Multiplexed TMT mass spectrometry proteomics in Kelly cells, HDAC6 abundance
Format: cell-based
Set-up: endogenous in cells; host or cells: Kelly cells
Method: Lysis buffer (8 M Urea, 50 mM NaCl, 50 mM 4-(2hydroxyethyl)-1-piperazineethanesulfonic acid (EPPS) pH 8.5, protease and phosphatase inhibitors from Roche®) were added to the cell pellets and homogenized by 20 passes through a 21 gauge (1.25 in. long) needle to achieve a cell lysate with a protein concentration between 1-4 mg mL^−1. A micro-BCA assay (Pierce™) was used to determine the final protein concentration in the cell lysate. 200 μg of protein for each sample were reduced and alkylated as described above.
Proteins were precipitated using methanol/chloroform. Four volumes of methanol were added to the cell lysate, followed by one volume of chloroform, and finally three volumes of water. The mixture was vortexed and centrifuged to separate the chloroform phase from the aqueous phase. The precipitated protein was washed with three volumes of methanol, centrifuged and the resulting washed precipitated protein was allowed to air dry. The precipitated protein was resuspended in 4 M Urea, 50 mM HEPES pH 7.4, followed by dilution to 1 M urea with the addition of 200 mM EPPS, pH 8. Proteins were first digested with LysC (1:50; enzyme:protein) for 12 hours at room temperature. The LysC digestion was diluted to 0.5 M Urea with 200 mM EPPS pH 8 followed by digestion with trypsin (1:50; enzyme:protein) for 6 hours at 37° C. Tandem mass tag (TMT) reagents (Thermo Fisher Scientific™) were dissolved in anhydrous acetonitrile (ACN) according to manufacturer's instructions.
Anhydrous ACN was added to each peptide sample to a final concentration of 30% v/v, and labeling was induced with the addition of TMT reagent to each sample at a ratio of 1:4 peptide:TMT label. […] The sample channels were combined at a 1:1:1:1:1:1:1:1:1:1:1 ratio, desalted using Cis solid phase extraction cartridges (Waters) and analyzed by LC-MS for channel ratio comparison. Samples were then combined using the adjusted volumes determined in the channel ratio analysis and dried down in a speed vacuum. […]

CN(C(=O)CCCNc1cccc2c1C(=O)N(C1CCC(=O)NC1=O)C2=O)c1ccc(NC(=O)CCCCCCC(=O)NO)cc1 (stereo not drawn) [Compound 1, N^1-(4-(4-((2-(2,6-dioxopiperidin-3-yl)-1,3-dioxoisoindolin-4-yl)amino)-N-methylbutanamido)phenyl)-N^8-hydroxyoctanediamide]
change in cellular HDAC6 protein levels vs DMSO (heat map FIG. 5) (1 μM, 2, 4, 8, and 16 hours): induced down regulation of cellular HDAC6 protein levels
change in HDAC6 protein levels vs DMSO, time course (FIG. 4) (1 μM, after 2 hours): significant reduction in HDAC6 protein levels
course of HDAC6 protein levels, time course (FIG. 4) (1 μM, over the course of 16 hours): continued to decrease
